How the values were obtained:
[1] = target: T1, Type-2 angiotensin II receptor (Rattus norvegicus, UniProt P35351); experiment: In vitro antagonist activity against angiotensin II receptor type 2 in rat midbrain using [125I]-Sar,Ile AII.; format: functional
T1 sequence (P35351 whole entry): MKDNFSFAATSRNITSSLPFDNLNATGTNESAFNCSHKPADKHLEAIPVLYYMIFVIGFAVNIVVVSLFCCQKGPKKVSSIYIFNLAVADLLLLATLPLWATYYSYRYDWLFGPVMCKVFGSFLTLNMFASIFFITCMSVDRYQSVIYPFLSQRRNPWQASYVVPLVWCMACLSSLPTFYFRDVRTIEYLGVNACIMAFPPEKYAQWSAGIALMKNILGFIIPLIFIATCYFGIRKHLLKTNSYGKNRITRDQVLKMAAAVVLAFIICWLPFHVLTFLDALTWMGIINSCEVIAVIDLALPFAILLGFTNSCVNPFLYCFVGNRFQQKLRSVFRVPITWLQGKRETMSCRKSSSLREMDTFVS

[2] = target: T2, Type-1 angiotensin II receptor (Oryctolagus cuniculus, UniProt P34976); experiment: In vitro antagonist activity against angiotensin II receptor type 1 in rabbit aorta using [125I]-Sar, Ile AII.; format: functional, tissue-based
T2 sequence (P34976 whole entry): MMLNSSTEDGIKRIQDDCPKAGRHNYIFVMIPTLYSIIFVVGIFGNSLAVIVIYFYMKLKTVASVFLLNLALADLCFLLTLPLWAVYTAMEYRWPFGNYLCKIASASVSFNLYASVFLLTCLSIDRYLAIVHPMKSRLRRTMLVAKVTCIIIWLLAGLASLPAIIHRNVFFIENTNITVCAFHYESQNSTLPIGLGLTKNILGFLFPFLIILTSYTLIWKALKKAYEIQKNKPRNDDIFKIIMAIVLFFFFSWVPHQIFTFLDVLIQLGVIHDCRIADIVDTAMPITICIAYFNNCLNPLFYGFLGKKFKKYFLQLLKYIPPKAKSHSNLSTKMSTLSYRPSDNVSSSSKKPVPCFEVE

| IC50 [1] | IC50 [2] | Compound |
| --- | --- | --- |
| 6600 nM | 20 nM | CCc1nc2c(C)cc(C)nc2n1Cc1ccc2c(ccn2C(=O)c2ccccc2C(=O)O)c1 |
| 12000 nM | 1 nM | CCc1nc2c(C)cc(C)nc2n1Cc1ccc2c(ccn2Cc2c(Cl)cccc2-c2nnn[nH]2)c1 |
| > 30000 nM | 120 nM | CCc1nc2c(C)cc(C)nc2n1Cc1ccc2c(ccn2Cc2c(Cl)cccc2C#N)c1 |
| 14000 nM | 160 nM | CCc1nc2c(C)cc(C)nc2n1Cc1ccc2c(ccn2Cc2cccc([N+](=O)[O-])c2C(=O)O)c1 |
| > 30000 nM |  | CCc1nc2c(C)cc(C)nc2n1Cc1ccc2c(c1)CCN2C(c1ccccc1)c1nnn[nH]1 (stereo unspecified) |
| 6500 nM | 18 nM | CCc1nc2c(C)cc(C)nc2n1Cc1ccc2c(c1)CCN2C(=O)c1c(Cl)ccc(Cl)c1C(=O)O |
| 17000 nM | 92 nM | CCc1nc2c(C)cc(C)nc2n1Cc1ccc2c(ccn2C(=O)c2ccccc2NC(=O)O)c1 |
| 11500 nM | 350 nM | CCc1nc2c(C)cc(C)nc2n1Cc1ccc2c(c1)CCN2C(C#N)c1ccccc1 (stereo unspecified) |
| 10500 nM | 1600 nM | CCc1nc2c(C)cc(C)nc2n1Cc1ccc2c(c1)CCN2C(C#N)c1cccc(C)c1 (stereo unspecified) |
| 25000 nM | 670 nM | CCc1nc2c(C)cc(C)nc2n1Cc1ccc2c(c1)CCN2C(=O)c1ccccc1C#N |
| 2700 nM | 0.8 nM | CCc1nc2c(C)cc(C)nc2n1Cc1ccc2c(ccn2C(=O)c2c(Cl)ccc(Cl)c2C(=O)O)c1 |
| 16000 nM | 170 nM | CCc1nc2c(C)cc(C)nc2n1Cc1ccc2c(c1)CCN2C(C(=O)OC)c1ccccc1 (stereo unspecified) |
| 1900 nM | 15 nM | CCc1nc2c(C)cc(C)nc2n1Cc1ccc2c(ccn2C(=O)c2cc(Cl)c(Cl)cc2C(=O)O)c1 |
| > 18000 nM | 8.7 nM | CCc1nc2c(C)cc(C)nc2n1Cc1ccc2c(ccn2Cc2ccccc2-c2nn[nH]n2)c1 |
| > 50000 nM | 250 nM | CCc1nc2c(C)cc(C)nc2n1Cc1ccc2c(ccn2C(=O)c2ccccc2C#N)c1 |
| > 30000 nM |  | CCc1nc2c(C)cc(C)nc2n1Cc1ccc2c(ccn2Cc2ccccc2C(=O)O)c1 |
| 21000 nM | 620 nM | CCc1nc2c(C)cc(C)nc2n1Cc1ccc2c(ccn2Cc2ccccc2C(=O)OC)c1 |
| 8900 nM | 240 nM | CCc1nc2c(C)cc(C)nc2n1Cc1ccc2c(ccn2C(=O)c2ccccc2)c1 |
| 14000 nM |  | CCc1nc2c(C)cc(C)nc2n1Cc1ccc2c(c1)CCN2C(C#N)c1ccc(C)cc1 (stereo unspecified) |
| > 30000 nM |  | CCc1nc2c(C)cc(C)nc2n1Cc1ccc2c(ccn2Cc2ccccc2NC(=O)OC)c1 |
| 1000 nM | 170 nM | CCc1nc2c(C)cc(C)nc2n1Cc1ccc2c(c1)CCN2C(=O)c1cc(Cl)c(Cl)cc1C(=O)O |
| > 10000 nM | 780 nM | CCc1nc2c(C)cc(C)nc2n1Cc1ccc2c(c1)CCN2C(=O)c1ccccc1-c1nnn[nH]1 |
| 130 nM | 5 nM | CCc1nc2c(C)cc(C)nc2n1Cc1ccc2c(ccn2C(=O)c2ccccc2-c2nnn[nH]2)c1 |
| 13000 nM | 1100 nM | CCc1nc2c(C)cc(C)nc2n1Cc1ccc2c(c1)CCN2C(C#N)c1ccccc1C (stereo unspecified) |
| > 30000 nM | 320 nM | CCc1nc2c(C)cc(C)nc2n1Cc1ccc2c(ccn2Cc2ccccc2C#N)c1 |
| 14000 nM | 82 nM | CCc1nc2c(C)cc(C)nc2n1Cc1ccc2c(c1)CCN2C(C(=O)O)c1ccccc1 (stereo unspecified) |
| > 10000 nM |  | CCc1nc2c(C)cc(C)nc2n1Cc1ccc(-c2ccccc2-c2nnn[nH]2)cc1 [L-158809] |
| 10000 nM | 48 nM | CCc1nc2c(C)cc(C)nc2n1Cc1ccc2c(c1)CCN2C(=O)c1ccccc1C(=O)O |
